Test results: US7452914B2, “Spiro-benzo[c]chromene derivatives useful as modulators of the estrogen receptors” (Janssen Pharmaceutica N.V., priority 2004, dated 2008)
Where two headings read alike, the source gives them in different places.

How the values were obtained:
[1] = test system: Human Endometrial Ishikawa Cells; test: Alkaline Phosphatase Assay in Human Endometrial Ishikawa Cells; type: cell-based; conditions: alkaline phosphatase activity, chemiluminescence; for IC50: antagonist mode, 10 nM 17β-estradiol added, read-out: Antagonist (No.); for EC50: 72 h, agonist mode, 3 days incubation, read-out: Agonist (No.)
Procedure: This assay was run according to the procedure described by Albert et a., Cancer Res, […], 50(11), 330-6-10, with minor modification.
Ishikawa cells (from ATCC) were maintained in DMEM/F12 (1:1) phenol red free medium (Gibco) supplemented with 10% calf serum (Hyclone). 24 hours prior to testing, the medium was changed to DMEM/F12 (1:1) phenol red free containing 2% calf serum.
Compounds to be tested in the agonist mode were added to the culture media at varying concentrations. Compounds to be treated in the antagonist mode were prepared similarly, and 10 nM 17β-estradiol was also added to the culture media. The cells were then incubated at 37° C. for 3 days. On the fourth day, the media was remove, 1 volume of 1× Dilution Buffer (Clontech) was added to the well followed by addition of 1 volume of Assay Buffer (Clontech). The cells were then incubated at room temperature for 5 minutes. 1 volume of freshly prepared Chemiluminescence Buffer (1 volume of chemiluminescent substrate (CSPD) in 19 volume Chemiluminescent Enhancer with final concentration of CSPD at 1.25 mM; Sigma Chemical Co.) was added. The cells were incubated at room temperature for 10 minutes and then quantified on a luminometer. The increase of chemiluminescence over vehicle control was used to calculate the increase in alkaline phosphatase activity.

[2] = test system: MCF-7 cells; test: MCF-7 Cell Proliferation Assay (14C-thymidine incorporation); type: cell-based; conditions: for IC50: 10 nM 17β-estradiol added, 14C-thymidine, read-out: Antagonist (No.); for EC50: MCF7, agonist mode, increase in 14C-thymidine relative to vehicle control, read-out: Agonist (No.)
Procedure: This assay was run according to the procedure described by Welshons, et al., (Breast Cancer Res. Treat., 1987, 10(2), 169-75), with minor modification.
Briefly, MCF-7 cells (from Dr. C. Jordan, Northwestern University) were maintained in RPMI 1640 phenol red free medium (Gibco) in 10% FBS (Hyclone), supplemented with bovine insulin and non-essential amino acid (Sigma). The cells were initially treated with 4-hydoxyltamoxifen (10^−8 M) and let stand at 37° C. for 24 hours. Following this incubation with tamoxifen, the cells were treated with compounds at various concentrations.
Compounds to be tested in the agonist mode were added to the culture media at varying concentrations. Compounds to be treated in the antagonist mode were prepared similarly, and 10 nM 17β-estradiol was also added to the culture media. The cells were incubated for 24 hours at 37° C. Following this incubation, 0.1 µCi of ^14C-thymidine (56 mCi/mmol, Amersham) was added to the culture media and the cells were incubated for an additional 24 hours at 37° C. The cells were then washed twice with Hank's buffered salt solution (HBSS) (Gibco) and counted with a scintillation counter. The increase in the ^14C-thymidine in the compound treated cells relative to the vehicle control cells were reported as percent increase in cell proliferation.

[3] = Homo sapiens, MCF7, antagonist mode

Molecule | IC50 [1] | IC50 ([2]; antagonist mode) | EC50 ([1]; Homo sapiens) | IC50 ([1]; Homo sapiens) | EC50 ([2]; Homo sapiens) | IC50 [2, 3]
9R*-2″,2″-Dimethyl-propionic Acid-{9-[4′-(2′-piperidinyl-ethoxy)-phenyl]-11,14-spiro[4,5]-5,6,7,8-tetrahydro-9H-benzo[c]chromen-2-yl Ester [R*-15] | 220 nM | 770 nM | – | – | – | –
9R*-2″,2″-Dimethyl-propionic Acid-{9-[4′-(2′-piperidinyl-ethoxy)-phenyl]-11,15-spiro[5,5]-5,6,7,8-tetrahydro-9H-benzo[c]chromen-2-yl Ester [R*-16] | 25.8 nM | 271 nM | – | – | – | –
Oc1ccc2c(c1)OC(c1ccc(OCCN3CCCC3)cc1)C1=C2CCC2(C1)SCCS2 (stereo not drawn) [Compound 13] | – | – | > 10 µM | 1050 nM | > 10 µM | > 10000 nM
CCN(CC)CCOc1ccc(C2Oc3cc(O)ccc3C3=C2CC2(CC3)SCCS2)cc1 (stereo not drawn) [Compound 14] | – | – | > 10 µM | 65.9 nM | > 10 µM | 4970 nM
O=S1(=O)CCCS(=O)(=O)C12CCC1=C(C2)C(c2ccc(OCCN3CCCCC3)cc2)Oc2cc(O)ccc21 (stereo not drawn) [Compound 17] | – | – | > 10 µM | > 10000 nM | > 10 µM | > 10000 nM

The remaining lines, values ahead:

IC50 [1] | IC50 ([2]; antagonist mode) | EC50 ([1]; Homo sapiens) | IC50 ([1]; Homo sapiens) | EC50 ([2]; Homo sapiens) | IC50 [2, 3] | Molecule
> 10000 nM | > 10000 nM | – | – | – | – | 9S*-2″,2″-Dimethyl-propionic Acid-{9-[4′-(2′-piperidinyl-ethoxy)-phenyl]-11,14-spiro[4,5]-5,6,7,8-tetrahydro-9H-benzo[c]chromen-2-yl Ester [S*-15]
> 10000 nM | > 10000 nM | – | – | – | – | 9S*-2″,2″-Dimethyl-propionic Acid-{9-[4′-(2′-piperidinyl-ethoxy)-phenyl]-11,15-spiro[5,5]-5,6,7,8-tetrahydro-9H-benzo[c]chromen-2-yl Ester [S*-16]
– | – | > 10 µM | 41.9 nM | > 10 µM | 672 nM | Oc1ccc2c(c1)O[C@H](c1ccc(OCCN3CCCCC3)cc1)C1=C2CCC2(C1)SCCS2 (stereo in doubt) [R*-11, 9R*-2-(Hydroxy)-{9-[4′-(2′-piperidinyl-ethoxy)-phenyl]-11,14-spiro[4,5]-5,6,7,8-tetrahydro-9H-benzo[c]chromene]
– | – | > 10 µM | 1020 nM | > 10 µM | > 10000 nM | Oc1ccc2c(c1)O[C@@H](c1ccc(OCCN3CCCCC3)cc1)C1=C2CCC2(C1)SCCS2 (stereo in doubt) [S*-11, 9S*-2-(Hydroxy)-{9-[4′-(2′-piperidinyl-ethoxy)-phenyl]-11,14-spiro[4,5]-5,6,7,8-tetrahydro-9H-benzo[c]chromene]
– | – | > 10 µM | 29.6 nM | > 10 µM | 1060 nM | Oc1ccc2c(c1)OC(c1ccc(OCCN3CCCCC3)cc1)C1=C2CCC2(C1)SCCS2 (stereo not drawn) [Compound 11]
– | – | > 10 µM | 35.1 nM | > 10 µM | 686 nM | Oc1ccc2c(c1)OC(c1ccc(OCCN3CCCCC3)cc1)C1=C2CCC2(C1)SCCCS2 (stereo not drawn) [Compound 12]
